Data from the supplement of paper PMC8671470.

How the values were obtained:
Conditions in all cases: 72 h
BV-173 [1] = system: BV-173
Outline: (§1)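 Fifteen myeloid leukaemia cell lines were seeded in RPMI 1640 at densities titrated to the linear growth range and placed in 384-well plates with acoustically pre-printed compounds at five tenfold doses from 1 to 10,000 nM, in duplicate. After 72 h at 37 °C with 5% CO2, luminescent ATP viability was normalised to vehicle and to a positive control at 10 µM, and curves were fitted with a four-parameter log-logistic model. The IC50 was obtained from these fits.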

HEL [2] = system: HEL
Outline: as §1

HL-60 [3] = system: HL-60
Outline: as §1

K-562 [4] = system: K-562
Outline: as §1

KCL-22 = system: KCL-22
Outline: as §1

KG-1 = system: KG-1
Outline: as §1

KU-812 [5] = system: KU-812
Outline: as §1

LAMA-84 [6] = system: LAMA-84
Outline: as §1

ML-2 [7] = system: ML-2
Outline: as §1

MOLM-13 = system: MOLM-13
Outline: as §1

MV4-11 [8] = system: MV4-11
Outline: as §1

Mono-Mac-6 [9] = system: Mono-Mac-6
Outline: as §1

NOMO-1 [10] = system: NOMO-1
Outline: as §1

SHI-1 [11] = system: SHI-1
Outline: as §1

THP-1 [12] = system: THP-1
Outline: as §1

HL-60 [13] = test: cell viability (% survival relative to DMSO control); higher = less cytotoxic
Outline: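 In 384-well plates, the full library was rescreened in duplicate on HL-60 cells in RPMI 1640 with 10% FBS, at 1–10,000 nM in five tenfold concentrations, for 72 h at 37 °C, 5% CO2. Each run also held DMSO or 100 nM of one of three metabolic inhibitors. Viability was measured by CellTiter-Glo and normalised to DMSO wells and to wells with proteasome inhibitor, present at 10 μM. Any area under the curve comes from four-parameter log-logistic fitting with drc and PharmacoGx.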

BV-173 [14] = test: cell viability (% survival relative to DMSO control, bortezomib = 0%); higher = less cytotoxic
Outline: (§2)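 Fifteen myeloid leukaemia cell lines (10 AML, 5 CML) were seeded at a density titrated to the linear growth range into 384-well plates pre-printed with compounds at 1, 10, 100, 1000 or 10000 nM in duplicate. Plates were incubated for 72 h at 37 °C with 5% CO2. Viability was then read by CellTiter-Glo luminescence. Each value is percent survival averaged over the duplicates, with vehicle set to 100% and a 10 µM positive control to 0%.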

HEL [15] = test: as above
Outline: as §2

HL-60 [16] = test: as above
Outline: as §2

K-562 [17] = test: as above
Outline: as §2

KU-812 [18] = test: as above
Outline: as §2

LAMA-84 [19] = test: as above
Outline: as §2

ML-2 [20] = test: as above
Outline: as §2

MV4-11 [21] = test: as above
Outline: as §2

Mono-Mac-6 [22] = test: as above
Outline: as §2

NOMO-1 [23] = test: as above
Outline: as §2

SHI-1 [24] = test: as above
Outline: as §2

THP-1 [25] = test: as above
Outline: as §2

O=C(O)CCCCC(CCSCc1ccccc1)SCc1ccccc1 (stereo not given) [CPI-613]
Conditions | IC50 (cell viability) [µM]
BV-173 [1] | > 10
HEL [2] | > 10
HL-60 [3] | > 10
K-562 [4] | > 10
KCL-22 | > 10
KG-1 | > 10
KU-812 [5] | > 10
LAMA-84 [6] | > 10
ML-2 [7] | > 10
MOLM-13 | > 10
MV4-11 [8] | > 10
Mono-Mac-6 [9] | > 10
NOMO-1 [10] | > 10
SHI-1 [11] | > 10
THP-1 [12] | > 10

cell viability [%], HL-60 [13]
Conditions | 0.001 µM | 0.01 µM | 0.1 µM | 1 µM | 10 µM
co-treatment: AZD3965 100 nM | 102 | 97.3 | 98.6 | 104 | 105
co-treatment: DMSO vehicle | 98.6 | 101 | 95.2 | 103 | 108
co-treatment: GSK2194069 100 nM | 97.55 | 101 | 89.4 | 104 | 107.3
co-treatment: pictilisib 100 nM | 105 | 98.8 | 88.5 | 103 | 107

cell viability [%]
Conditions | 1 nM | 10 nM | 100 nM | 1000 nM | 10000 nM
BV-173 [14] | 89 | 97.3 | 91.1 | 94.4 | 93.8
HEL [15] | 109 | 91 | 106 | 103 | 73.8
HL-60 [16] | 107 | 111 | 110 | 87.9 | 101
K-562 [17] | 94 | 90.4 | 102 | 89.2 | 107
KU-812 [18] | 98.9 | 94.3 | 99.6 | 105 | 89.7
LAMA-84 [19] | 106 | 98.3 | 96.5 | 96.8 | 97.5
ML-2 [20] | 89.7 | 94.3 | 103 | 98.2 | 95.8
MV4-11 [21] | 107 | 90.5 | 96.6 | 93 | 105
Mono-Mac-6 [22] | 92.8 | 86.9 | 96.3 | 94.2 | 96.3
NOMO-1 [23] | 101 | 95.2 | 98.2 | 100 | 97.2
SHI-1 [24] | 89.9 | 110 | 108 | 95.8 | 107
THP-1 [25] | 102 | 90.1 | 96.2 | 93.7 | 97.3
